According to patent US12150975B2, “Therapeutic combinations to treat red blood cell disorders” (HARTIS-PHARMA SA, priority 2016, dated 2024):

Columns and labels:
Type in all cases: cell-based, human
[1] = tested on: RBC from healthy subjects; assay: Reactive oxygen species (ROS) in RBC measured as Median Fluorescence Intensity by flow cytometry; conditions: 20 min incubation
Experimental: Blood was collected from four healthy control subjects using citrate as anticoagulant. After low speed centrifugation, the RBC pellet was washed with isotonic phosphate buffered saline (PBS) and re-suspended in PBS (hematocrite 20%). The RBC were prepared as described in Example 7 and the effect of HDL with or without lutein on the oxidative stress status of RBC was determined using RBC from healthy subjects incubated for 20 min in presence of 100 μM HDL isolated from human plasma (Sigma ref L-1567) in presence or absence of 1 μM or 10 μM lutein (Bertin pharma ref. 1001081). Reactive oxygen species (ROS) were measured as Median Fluorescence Intensity (MFI) by flow cytometry similarly to Amer et al., 2003, Eur J Haematol, 70(2):84-90.

[2] = tested on: RBC from SCD subjects; assay: RBC sensitivity to cholesterol depletion: hemolysis and membrane deformability by ektacytometry, SCD RBC; conditions: 10 mM methyl-beta-cyclodextrine, 20 min at 37° C., RBC from 4 SCD subjects
Experimental: (§1) Blood was collected from four healthy control subjects using citrate as anticoagulant. After low speed centrifugation, the RBC pellet was washed with isotonic phosphate buffered saline (PBS) and re-suspended in PBS (hematocrite 20%).
(§2) To confirm the difference in membrane cholesterol in RBC from SCD compared to healthy subjects, RBC's sensitivity to the cholesterol depleting agent methyl-beta-cyclodextrine was assessed. RBCs were incubated for 20 min at 37° C. in the presence of 2.5 mM or 10 mM methyl-beta-cyclodextrine (Sigma ref. C4555-5G) as described by Motayama et al., 2009, Biol. Pharm. Bull., 32(4) 700-705. RBC membrane deformability was assessed by ektacytometry (Mechatronics) as described by Renoux et al., 2016, Clin Hemorheol Microcirc., 62(2):173-9 at shear rate of 3 Pa and 30 Pa.

[3] = tested on: RBC from healthy control; assay: RBC sensitivity to cholesterol depletion: hemolysis and membrane deformability by ektacytometry, healthy RBC; conditions: 10 mM methyl-beta-cyclodextrine, 20 min at 37° C.
Experimental: as §1, §2

Compound	decrease in ROS ([1]; 1 μM lutein)	% change in ROS MFI vs control ([1]; Lutein 1 μM)	mean MFI (ROS) ([1]; Lutein 1 μM)	% change in ROS MFI vs control ([1]; Lutein 10 μM)	mean MFI (ROS) ([1]; Lutein 10 μM)	cholesterol depleting effect and resulting hemolysis [2]	hemolysis [3]	RBC deformability ([3]; ektacytometry at 3 Pa and 30 Pa)
CC1=C[C@H](O)CC(C)(C)[C@H]1/C=C/C(C)=C/C=C/C(C)=C/C=C/C=C(C)/C=C/C=C(C)/C=C/C1=C(C)C[C@@H](O)CC1(C)C [Lutein, lutein]	9.2%	−9.2%	38.3	−36.4%	26.8	–	–	–
methyl-beta-cyclodextrine	–	–	–	–	–	resistant	marked hemolysis	significant decrease
